From article PMC3017812 (Chembiochem : a European journal of chemical biology, 2010)

Target: His-tagged MDM2 (Homo sapiens, UniProt Q00987)
Test: competitive fluorescence polarization binding assay

Row | Compound | fold lower affinity for MDM2 relative to peptide 1 (fluorescence polarization assay, compared with unconstrained peptide 1) | Kd (read-out: KD, binding affinity for MDM2, competitive fluorescence polarization assay, His-tagged MDM2)
1 | CC(C)C[C@H](NC(=O)[C@H](CC(=O)O)NC(=O)[C@H](CO)NC(=O)[C@H](Cc1ccccc1)N1C/C=C/CCC(=O)N[C@@H](CCC(=O)O)C(=O)N[C@@H](C)C1=O)C(=O)N[C@@H](Cc1c[nH]c2ccccc12)C(=O)N[C@@H](CCCCN)C(=O)N[C@@H](CC(C)C)C(=O)N[C@@H](CC(C)C)C(=O)N1CCC[C@H]1C(=O)N[C@@H](CCC(=O)O)C(=O)N[C@@H](CC(N)=O)C(=O)N[C@@H](CC(N)=O)C(=O)N[C@H](C(N)=O)C(C)C [HBS 2] | seven-fold lower affinity | –
2 | HBS 3: negative control of 2, Phe-19 and Leu-26 mutated to alanine (EAASDLWKLAPENNV) | – | > 125 µM
